Paper PMC6270839, “Synthesis and Biological Evaluation of Novel 10-Substituted-7-ethyl-10-hydroxycamptothecin (SN-38) Prodrugs” (Molecules, 2014)
Like-named read-outs stand apart in the source and are kept apart here.

Tests used:
[1] = tested on: human colon adenocarcinoma SW1116 xenografts; assay: Tumor growth inhibition in human colon adenocarcinoma SW1116 xenografts in nude mice; type: in vivo; conditions: 60 mg/kg, injection in the tumor section once per day for 6 days; for Tumor Weight: SW1116 xenograft nude mice, x ± SD
Procedure: The antitumor activity of 5e, compared with CPT-11 and SN-38, was investigated in human colon adenocarcinoma SW1116 xenografts in nude mice. The model animals were divided into four experimental groups, eight animals per group. Tested compouds were each administered by injection in the tumor section once per day for contiguous 6 days. The injection doses of test compound 5e, CPT-11, and SN-38 were 60 mg/kg, respectively. Using the vehicle group as the control, we tested the inhibitory activities of these compounds for 6 days and measured the changes in body weight and tumor size every 2 days. […] No toxic death occurred after drug treatment, and the body weight losses induced by 5e, CPT-11, and SN-38 at the given dose were similar.

[2] = molecular target: AChE from electric eel (Electrophorus electricus, UniProt O42275); assay: AChE inhibition assay (modified Ellman method); type: biochemical; conditions: AChE IC50, electric eel AChE, phosphate buffer pH 7.3, 37 °C
From the text: Irinotecan has been reported to be a potent inhibiter of AChE, and inhibition of this enzyme causes acute cholinergic diarrhea. Unlike irinotecan, the compounds we assayed were only weak inhibitors of AChE. […] One possible explanation is that the active site of AChE is present at the bottom of a gorge that is lined with hydrophobic amino acid residues. The terminal dipiperidino moiety in CPT-11 that interacts with amino acid residues within AChE plays a major role in enzyme inhibition, which has been confirmed by X-ray crystallographic studies.
The AChE inhibition by all compounds was studied according to a modification of the method of Ellman et al.. The activity was assayed with AChE from electric eel in the presence or absence of the test compounds in phosphate buffer (pH7.3). After the incubation at 37 °C for 1 min, 0.38 mM 5,5-dithiobisnitrobenzoic acid and 0.56 mM ATCh were added to the buffer. The changes in absorbance were read at 412 nm, per 15 s intervals for 3 min by a spectrophotometer (UV-2500, Shimadzu Corp., Kyoto, Japan).

[3] = Chemical stability of the prodrugs in PBS (HPLC); type: physicochemical; conditions: for Remaining Prodrugs 1 h pH 4.6 / Remaining Prodrugs 12 h pH 4.6: PBS pH 4.6, 37 °C; for Remaining Prodrugs 1 h pH 7.4 / Remaining Prodrugs 12 h pH 7.4: PBS pH 7.4, 37 °C
Procedure: They were stable at pH 4.6 at 37 °C for 12 h. Except for compound 5h, less than 35% of the prodrugs remained after incubation for 12 h in pH 7.4 buffer. […] For example, less than 30% of the prodrugs 7a–f remained, while more than 85% of the prodrugs 5a–h remained after incubation for 1 h in pH 7.4 buffer.
The stability of all compounds was investigated in PBS and human plasma by HPLC using a C18 analytical column. The mobile phase was composed of water and acetonitrile at a ratio of 70:30, respectively, containing 1% trifluoroacetic acid. The amount of the compound and its metabolite SN-38 were flowed at the rate of 0.8 mL·min^−1 and detected by the UV wavelength of 370 nm. Stability test in PBS: each compound was dissolved in PBS (pH 7.4 and pH 4.6), incubated at 37 °C and analyzed at 1, 3, 6, 12 h. Stability test in plasma: The test compounds were dissolved in DMSO and diluted to 1 mM by 0.9% physiological saline. Forty μL of each solution was added into plasma with a final concentration of 0.1 mM. The mixture was incubated in a 37 °C water bath following the vigorous vortex mixing for 15 s. Samples were analyzed at 1, 3, 6, 12 h. 400 μL of cold acetonitrile (containing 1% trifluoroacetic acid) was added to each sample, vortex-mixed for 15 s and centrifuged at 3500 rpm for 15 min at 4 °C.

[4] = tested on: HeLa human cervical carcinoma cell line; assay: MTT in vitro antitumor (antiproliferative) assay, HeLa; type: cell-based; conditions: 72 h
Procedure: (§1) The in vitro antitumor activities were evaluated on human cancer cell lines SGC-7901 and HeLa by the MTT assay, using irinotecan as the reference compound.
(§2) The in vitro antitumor activity was evaluated on two human cancer cell lines with the MTT method. SGC-7901 is a human gastric adenocarcinoma cancer cell line and HeLa is a human cervical carcinoma cell line. Cells were provided by the Jilin Province Tumor Institute. Cells were maintained in IMDM medium supplemented with 10% fetal calf serum, 2 mM glutamine, 100 U/mL penicillin, and 100 μg/mL streptomycin, at 37 °C in a humidified atmosphere containing 5% CO2. The human cancer lines SGC-7901 and HELA at a concentration of […] were incubated in a 96-well microtiter plate (100 μL in every well) for 24 h (37 °C, 5%CO2). Then the cells were incubated continuously for 72 h following various concentrations of test drugs were added. The concentrations are 50 μM, 10 μM, 2 μM, 0.4 μM, 0.08 μM, 0.016 μM, 0.0032 μM, respectively. After the 100 μL 0.05% MTT solution was added to each well, the plate was incubated for a further 4 h before removal of medium, the media removed. Formazan crystals were dissolved with 100 μL DMSO, then the absorbance was detected at 490 nm.

[5] = tested on: SGC-7901 human gastric adenocarcinoma cancer cell line; assay: MTT in vitro antitumor (antiproliferative) assay, SGC-7901; type: cell-based; conditions: for IC50: Homo sapiens, SGC-7901, 72 h, read-out: IC50 SGC-7901; for fold greater antiproliferative activity (lower IC50) than irinotecan, SGC-7901 cells: IC50 ratio vs irinotecan
Procedure: as §1, §2

AChE from electric eel, sequence (O42275 24-633): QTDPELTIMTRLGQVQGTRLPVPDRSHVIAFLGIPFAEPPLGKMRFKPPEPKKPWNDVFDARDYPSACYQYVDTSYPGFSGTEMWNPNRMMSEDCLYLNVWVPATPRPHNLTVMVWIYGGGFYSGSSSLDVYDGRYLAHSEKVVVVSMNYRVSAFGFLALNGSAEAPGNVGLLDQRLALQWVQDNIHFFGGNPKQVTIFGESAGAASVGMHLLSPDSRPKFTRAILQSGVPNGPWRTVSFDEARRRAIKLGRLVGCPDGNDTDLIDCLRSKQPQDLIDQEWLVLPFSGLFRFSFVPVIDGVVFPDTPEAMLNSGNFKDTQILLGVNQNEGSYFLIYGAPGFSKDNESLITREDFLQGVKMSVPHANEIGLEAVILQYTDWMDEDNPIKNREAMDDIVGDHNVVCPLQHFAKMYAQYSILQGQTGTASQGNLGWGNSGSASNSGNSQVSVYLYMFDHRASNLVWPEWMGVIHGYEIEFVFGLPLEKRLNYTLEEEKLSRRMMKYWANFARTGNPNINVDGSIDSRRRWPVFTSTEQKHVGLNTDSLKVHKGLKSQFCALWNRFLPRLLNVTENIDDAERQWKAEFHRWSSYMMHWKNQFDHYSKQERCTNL

| Compound | Tumor Weight [1] | Inhibitory Rate ([1]; day 6, vs vehicle) | IC50 [2] | Remaining Prodrugs 1 h pH 4.6 [3] | Remaining Prodrugs 12 h pH 4.6 [3] | Remaining Prodrugs 1 h pH 7.4 [3] | Remaining Prodrugs 12 h pH 7.4 [3] | IC50 ([4]; read-out: IC50 HeLa) | IC50 [5] | fold greater antiproliferative activity (lower IC50) than irinotecan, SGC-7901 cells [5] | IC50 ([4]; read-out: IC50 against HeLa cells) |
| --- | --- | --- | --- | --- | --- | --- | --- | --- | --- | --- | --- |
| CCc1c2c(nc3ccc(O)cc13)-c1cc3c(c(=O)n1C2)COC(=O)[C@]3(O)CC [SN-38, 7-ethyl-10-hydroxycamptothecin] | 0.32 ± 0.12 g/10g | 8.6% | – | – | – | – | – | – | – | – | – |
| CCc1c2c(nc3ccc(OC(=O)NCC(=O)NC(CCC(=O)O)C(=O)O)cc13)-c1cc3c(c(=O)n1C2)COC(=O)[C@]3(O)CC (stereo partly drawn) [Compound 7c, 10-OCO-(Glu-Gly-OH)-SN-38] | – | – | > 100 µM | 100% | 96.4% | 29.4% | 0% | < 0.0032 µM | 0.2 ± 0.07 µM | 30 fold | – |
| CCc1c2c(nc3ccc(OC(=O)N[C@H](CC(=O)O)C(=O)O)cc13)-c1cc3c(c(=O)n1C2)COC(=O)[C@]3(O)CC [Compound 5g, 10-OCO-(L-Asp-OH)-SN-38] | – | – | 3.08 µM | 100% | 94.5% | 93.9% | 34.1% | 0.00907 µM | 0.98 ± 0.05 µM | – | – |
| CCc1c2c(nc3ccc(OC(=O)NC(C(=O)O)C(C)CC)cc13)-c1cc3c(c(=O)n1C2)COC(=O)[C@]3(O)CC (stereo partly shown) [Compound 5f, 10-OCO-(Ile-OH)-SN-38] | – | – | 1.36 µM | – | – | – | – | 0.00364 µM | 0.76 ± 0.34 µM | – | – |
| CCc1c2c(nc3ccc(OC(=O)NC(C)C(=O)NC(CCC(=O)O)C(=O)O)cc13)-c1cc3c(c(=O)n1C2)COC(=O)[C@]3(O)CC (stereo partly drawn) [Compound 7f, 10-OCO-(Glu-Ala-OH)-SN-38] | – | – | 36.1 µM | 100% | 94.7% | 14.4% | 0% | 0.00157 µM | 0.27 ± 0.18 µM | 30 fold | < 0.0032 µM |
| CCc1c2c(nc3ccc(OC(=O)NC(C)C(=O)O)cc13)-c1cc3c(c(=O)n1C2)COC(=O)[C@]3(O)CC (stereo partly shown) [Compound 5b, 10-OCO-(Ala-OH)-SN-38] | – | – | – | – | – | – | – | 0.00985 µM | 1.75 ± 0.6 µM | – | – |
| CCc1c2c(nc3ccc(OC(=O)NCC(=O)N[C@@H](CC(=O)O)C(=O)O)cc13)-c1cc3c(c(=O)n1C2)COC(=O)[C@]3(O)CC [Compound 7b, 10-OCO-(L-Asp-Gly-OH)-SN-38] | – | – | – | 100% | 96.9% | 17.6% | 0% | 0.0148 µM | 0.61 ± 0.68 µM | – | – |
| CCc1c2c(nc3ccc(OC(=O)NCC(=O)N[C@H](CC(=O)O)C(=O)O)cc13)-c1cc3c(c(=O)n1C2)COC(=O)[C@]3(O)CC [Compound 7a, 10-OCO-(D-Asp-Gly-OH)-SN-38] | – | – | 116 µM | 100% | 96.8% | 26.0% | 0% | < 0.0032 µM | 1.04 ± 0.9 µM | – | – |
| CCc1c2c(nc3ccc(OC(=O)NC(C)C(=O)N[C@@H](CC(=O)O)C(=O)O)cc13)-c1cc3c(c(=O)n1C2)COC(=O)[C@]3(O)CC (stereo partly drawn) [Compound 7e, 10-OCO-(L-Asp-Ala-OH)-SN-38] | – | – | – | 100% | 94.5% | 23.4% | 0% | 0.0129 µM | 0.21 ± 0.55 µM | – | – |
| CCc1c2c(nc3ccc(OC(=O)N[C@@H](CC(=O)O)C(=O)O)cc13)-c1cc3c(c(=O)n1C2)COC(=O)[C@]3(O)CC [Compound 5h, 10-OCO-(D-Asp-OH)-SN-38] | – | – | 7.43 µM | 100% | 94.5% | 93.4% | 52.2% | < 0.0032 µM | 0.24 µM | 30 fold | – |
| CCc1c2c(nc3ccc(OC(=O)NC(C(=O)O)C(C)C)cc13)-c1cc3c(c(=O)n1C2)COC(=O)[C@]3(O)CC (stereo partly shown) [Compound 5c, 10-OCO-(Val-OH)-SN-38] | – | – | – | – | – | – | – | 0.00561 µM | 1.88 ± 0.72 µM | – | – |
| CCc1c2c(nc3ccc(OC(=O)NC(CC(C)C)C(=O)O)cc13)-c1cc3c(c(=O)n1C2)COC(=O)[C@]3(O)CC (stereo partly shown) [Compound 5e, 10-OCO-(Leu-OH)-SN-38] | 0.17 ± 0.05 g/10g | – | – | – | – | – | – | 0.00182 µM | 0.5 ± 0.19 µM | – | – |
| CCc1c2c(nc3ccc(OC(=O)NC(CCC(=O)O)C(=O)O)cc13)-c1cc3c(c(=O)n1C2)COC(=O)[C@]3(O)CC (stereo partly shown) [Compound 5d, 10-OCO-(Glu-OH)-SN-38] | – | – | – | 98.1% | 92.5% | 85.2% | 8.6% | – | – | – | – |
| CCc1c2c(nc3ccc(OC(=O)NCC(=O)O)cc13)-c1cc3c(c(=O)n1C2)COC(=O)[C@]3(O)CC [Compound 5a, 10-OCO-(Gly-OH)-SN-38] | – | – | 19.8 µM | 100% | 98.4% | 85.3% | 14.8% | 0.0304 µM | 2.69 ± 0.11 µM | – | – |
| CCc1c2c(nc3ccc(OC(=O)NC(C)C(=O)N[C@H](CC(=O)O)C(=O)O)cc13)-c1cc3c(c(=O)n1C2)COC(=O)[C@]3(O)CC (stereo partly drawn) [Compound 7d, 10-OCO-(D-Asp-Ala-OH)-SN-38] | – | – | 4.44 µM | 100% | 95.5% | 26.3% | 0% | < 0.0032 µM | 0.26 ± 0.64 µM | 30 fold | – |
